The source of these data is PubChem BioAssay (NCI).

Holding throughout (test): NCI-60 cell line screen, 48 h
Experiment [1] deals with A498 renal.
Experiment [2] concerns A549 NSCLC.
Experiment [3] relates to HCC-2998 colon.
Experiment [4] deals with MCF7 breast.
For experiment [5], the system named is NCI-H23 lung.
For experiment [6], the system named is OVCAR-8 ovarian.
In experiment [7] the test system is SNB-19 CNS.
Experiment [8] deals with SW-620 colon.
Experiment [9] has as its system UACC-62 melanoma.
Experiment [10] concerns HL-60(TB) leukemia.

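In this assay, cells in 96-well plates receive the compound at five concentrations for 48 hours. Endpoints are linearly interpolated between the surrounding concentrations. GI50 is the concentration that inhibits growth by half. TGI marks complete inhibition of growth.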

Take `CC(=O)c1cccc(NC(=O)C(=O)c2c(O)c3ccccc3oc2=O)c1`: the TGI in [1], in experiment [2], in [3], in experiment [4], in [5] and in [6] was greater than 100 µM each time. Also, the TGI in experiment [7], in experiment [8] and in [9] was greater than 100 µM in each case.

As to `C=CC(C)(C)n1cc(C2=C(O)C(=O)C(c3cn(C(C)(C)C=C)c4ccccc34)=C(O)C2=O)c2ccccc21`, the TGI is 34.5 µM in experiment [1]; 14.6 µM in experiment [2]; 9.8 µM in [3]; greater than 31.5 µM in experiment [10]; 12.4 µM in [4]; 7.83 µM in [5]. Also, the TGI in experiment [6] came to 13.6 µM; in [7], 7.38 µM; in experiment [8] it was 53.8 µM; in [9] it was 4.33 µM.

As for `FC(F)(F)c1ccc(-c2nn3ncccc3c2-c2ccnc(Nc3ccc4c(c3)OCCO4)n2)cc1`, the GI50 is 4.68 µM in experiment [1]; 21.4 µM in experiment [2]; 6.56 µM in experiment [3]; 7.16 µM in experiment [10]; 8.04 µM in [4]; 14.7 µM in [5]. The GI50 in [6] was 13.2 µM; in experiment [7], greater than 25 µM; in experiment [8], greater than 25 µM; in [9], 10 µM. The TGI was greater than 25 µM in [1]; greater than 25 µM in experiment [2]; greater than 25 µM in [3]; greater than 21.8 µM in experiment [10]; greater than 25 µM in [4]; greater than 25 µM in experiment [5]. The TGI in experiment [6], in [7], in experiment [8] and in [9] was greater than 25 µM throughout.

Consider `O=C(NN1C(=O)CSC1c1cccc(Cl)c1)C(O)c1ccccc1` (centres undefined), for which the GI50 in experiment [1] is greater than 100 µM; in experiment [2], 35.9 µM; in experiment [4], greater than 100 µM; in experiment [5], 56.3 µM; in experiment [6], 83.5 µM; in [7], greater than 100 µM. Moreover, the values for the GI50 in experiment [8] and in experiment [9] were greater than 100 µM and 23.1 µM, respectively. For the same compound, the TGI in [1], in experiment [2], in experiment [4], in experiment [5], in experiment [6] and in experiment [7] was greater than 100 µM each time. Besides, the TGI in experiment [8] and in experiment [9] was greater than 100 µM each time.

For `NC(=O)c1cccnc1`, the GI50 in experiment [1], in experiment [2], in [10], in experiment [4], in [5] and in experiment [6] was greater than 100 µM in each case. Besides, the GI50 in experiment [7], in experiment [8] and in experiment [9] was greater than 100 µM in each case. The TGI in [1], in [2], in experiment [10], in [4], in experiment [5] and in experiment [6] was greater than 100 µM throughout. Also, the TGI in [7], in [8] and in experiment [9] was greater than 100 µM in each case.

As to `CO[C@H]1/C=C/O[C@@]2(C)Oc3c(C)c(O)c4c(O)c(c(/C=N/N5CCN(C)CC5)c(O)c4c3C2=O)NC(=O)/C(C)=C\C=C\[C@H](C)[C@H](O)[C@@H](C)[C@@H](O)[C@@H](C)[C@H](OC(C)=O)[C@@H]1C`, the TGI in experiment [1], in [2], in experiment [3], in experiment [4], in [6] and in experiment [8] was greater than 100 µM throughout. The TGI in [9] is greater than 100 µM.

On to `COc1ccc(-c2c(C#N)c(N)nc(N3CCOCC3)c2C#N)cc1`, for which the GI50 in experiment [1] is 7.36 µM; in experiment [2], 29.4 µM; in [3], 13 µM; in experiment [10], 20.2 µM; in experiment [4], 21.6 µM; in experiment [6], 26 µM. In addition, the GI50 in [7] was 21.8 µM; in experiment [8], 50.3 µM; in experiment [9], 14.6 µM. The TGI in [1] is 30.1 µM; in experiment [2], greater than 100 µM; in experiment [3], 31.6 µM; in experiment [10], 63.5 µM; in experiment [4] it was 98.9 µM; in [6], greater than 100 µM. Also, the TGI is greater than 100 µM in experiment [7], greater than 100 µM in experiment [8] and 74.7 µM in experiment [9].

Turning to `CCOC(=O)c1sc(-c2ccc(OS(=O)(=O)C[C@]34CCC(CC3=O)C4(C)C)c(C=O)c2)nc1C`, the GI50 was 0.127 µM in experiment [1]; 1.25 µM in experiment [2]; 1.27 µM in [10]; 0.858 µM in [4]; 1.04 µM in [5]; 1.53 µM in experiment [6]. The GI50 in experiment [7] was 0.898 µM; in [8], 1.04 µM; in experiment [9], 0.745 µM. In addition, the TGI was 1.17 µM in [1]; greater than 50 µM in experiment [2]; 3.29 µM in [10]; 2.47 µM in [4]; 2.64 µM in experiment [5]; greater than 50 µM in experiment [6]. Also, the TGI amounted to 2.15 µM in [7], 2.69 µM in experiment [8] and 1.76 µM in experiment [9].

For `CC(/C=C/C(O)=C1/C(=O)CNC1=O)=C\[C@@H](C)[C@H]1O[C@@]2(C)O[C@H](C(=O)[C@@H]3O[C@@]32C)[C@@H]1C`, the TGI in experiment [1] is 29.1 µM; in experiment [10] it was 80.6 µM; in experiment [4] it was 39.8 µM; in experiment [5] it was 59 µM; in experiment [6], 46.4 µM; in experiment [7], 55.4 µM. The results for the TGI in [8] and in [9] were greater than 100 µM and 33.3 µM, respectively.
